Reference: patent US10500218B2, “Uptake of pharmaceuticals within cyclodextrin-based porous materials” (Northwestern University, priority 2015, dated 2019)

Key:
[1] = system: MCF-10A (human mammary epithelial cells); test: Growth inhibition / cell viability (Cell Titer-Glo) on MCF-10A cells; format: cell-based; settings: 48 hours, tested up to 100 μM
Description: (§1) Toxicity studies of both CD-MOF-1 and ibuprofen were carried out in vitro on two cell lines: MCF-10A (human mammary epithelial cells) (FIG. 4A) and MDA-MB-231 (human breast adenocarcinoma) (FIG. 4B). For both cell lines, no IC50 value could be obtained for CD-MOF-1, and ibuprofen up to concentrations of 100 μM.
(§2) Cell Studies. For cell studies, CD-MOF-1 was solubilized in H2O and the free-acid of ibuprofen was solubilized in Me2SO. The growth inhibition of various cell lines was determined according to the protocols from the NCl/NIH Developmental Therapeutics Program, and in collaboration with the Northwestern University Developmental Therapeutics Core Facility. Cells were plated in triplicate in 96 well plates. The cells were plated at densities of 10,000 per well in 90 μL for MDA-MB-231; and 25,000 per well in 90 μL for MCF-10A. The MDA-MB-231 cells were cultured in RPMI1640 media supplemented with 10% Fetal Bovine Serum (FBS), and 2 mM glutamine with 5% CO2 at 37° C. For experiments, 5% of FBS and 50 μg/mL of gentamycin were used. […]
(§3) Time zero cells (Tz) were processed according to the Promega Cell Titer Glo, and the following day Cell Titer-Glo Luminescent Cell Viability Assay. […] The plates were shaken for 2 min and allowed to sit for activation prior to reading for 10 min. Plates were read on a BioTek reader using the luminescence program.

[2] = system: MDA-MB-231 (human breast adenocarcinoma); test: Growth inhibition / cell viability (Cell Titer-Glo) on MDA-MB-231 cells; format: cell-based; settings: 48 hours, tested up to 100 μM
Description: as §1, §2, §3

[3] = Storage under ambient conditions: hygroscopicity and crystallinity (PXRD); format: physicochemical; settings: atmospheric / ambient conditions, several months for the CD-MOF-1 formulation
Description: FIG. 3A depicts powder X-ray diffraction (PXRD) of freshly prepared CD-MOF-1 formulations of ibuprofen prepared by co-crystallization from the potassium salt of ibuprofen and adsorption of the deprotonated acid form of ibuprofen within a pre-existing CD-MOF-1, compared to the predicted I432 diffraction pattern.
Three formulations were tested: ibuprofen, potassium salt, and a physical mixture of 23 wt. % ibuprofen, potassium salt with γ-CD (which is analogous to a stoichiometric loading of ibuprofen within CD-MOF-1 created by co-crystallization) were used as control samples, and the third formulation contained CD-MOF-1 loaded with 26 wt. % ibuprofen by the adsorption protocol. The potassium salt of ibuprofen was considered to be the most appropriate control form of ibuprofen in this study, as the results of the solvent-dependent adsorption loading of ibuprofen is evidence that an anion exchange process was occurring within CD-MOf-1, i.e., deprotonation of the free-acid form of ibuprofen, which was facilitated by water-miscible polar solvents. […] It is used, however, in rapid release gelatin capsules.

| SMILES | IC50 [1] | IC50 [2] | hygroscopicity [3] |
| --- | --- | --- | --- |
| CC(C)Cc1ccc(C(C)C(=O)O)cc1 (racemic) [ibuprofen] | > 100 µM | > 100 µM |  |
| CC(C)Cc1ccc(C(C)C(=O)[O-])cc1.[K+] (stereo not drawn) [potassium salt of ibuprofen, ibuprofen, potassium salt] |  |  | very hygroscopic |
